Columns and labels:
[1] = Membrane-permeation (MP) dissolution test; format: in vitro ADME
Procedure: The membrane permeability test described in the Examples below is carried out as follows. A drug-permeable membrane is placed between feed and permeate reservoirs. A sufficient quantity of test composition is added to a feed test medium and placed in the feed reservoir, while a water immiscible organic solution, such as a 60/40 mixture of decanol/decane, is placed in the permeate reservoir. Samples are removed from the permeate reservoir and analyzed for the concentration of drug as a function of time. […] Further details of this membrane permeation test are disclosed in U.S. Pat. No 7,611,630 B2.
The MP-dissolution test, whose details are described above, measures a capability of low solubility drug formulations which is not measured in the microcentrifuge dissolution test utilized in Examples 4 and 7. This test mimics an aspect of the in vivo situation in the GI tract. In the in vivo situation, it is generally accepted that free drug in solution (i.e. individual drug molecules dissolved in the GI medium without association with formulation components) is the species which is absorbed across the gastrointestinal wall into the bloodstream. As free drug is absorbed, the formulation must be capable of supplying more free drug for absorption. The membrane permeation test measures the amount of drug which crosses a polymeric membrane (as a model of the GI wall) over time, and thus reflects the ability of the formulation to resupply free drug in solution to be further passively transported across the polymeric membrane. In Table 8.1 below, Maximum Flux is the maximum observed rate of permeation across the polymeric membrane, based on the slope of the absorption curve over any period within the 240 minute duration of the experiment, normalized for membrane area. Total drug recovery is the % of the initial drug dose which has crossed the membrane when the test ended at 240 minutes.

[2] = Relative bioavailability of amorphous drug and spray-dried dispersions in rats (Example 12); format: in vivo; details: oral gavage 20 mg/kg, mean ± standard deviation
Procedure: Five groups of jugular vein-cannulated CD® rats (n=6 per group) were dosed five enzalutamide formulations by oral gavage, at a dose of 20 mg/kg, in a volume of 2 ml/kg. Blood samples were obtained at 1, 3, 6, 12, 24, 36, 48, 60, and 72 hr post-dose.
The analytes, enzalutamide. MDPC0002, and MDPC0001 and internal standards (IS), N-^13CD3-enzalutamide, MDPC0002-^13CD3, and MDPC0001-^13CD3 were extracted from […], of rat plasma by a liquid-liquid extraction procedure. Internal standard working solution (25.0 µL) was added to all wells except the matrix blank. A 25.0 µL-volume of acetonitrile was added all matrix blank samples. After adding 200 µL of 5% sodium bicarbonate in water buffer solution, the plate was vortexed for approximately 10 seconds. A Tomtec Quadra 96-well pipettor was used to add […] of methyl tert-butyl ether (MTBE) to all wells, mixed, and approximately 1.00 mL of the organic layer was transferred to a clean 96-well plate. The samples were evaporated under heated nitrogen and reconstituted with 250 µL of 0.1% formic acid in methanol/water (40:60. v/v). The plate was covered and gently vortexed for approximately 10 seconds. The extracts were chromatographed under reverse phase conditions on an ACE 5 C18 HPLC 5 µm, 2.1 x 30 mm column. The compounds were detected and quantified by tandem mass spectrometry in positive ion mode on an MDS Sciex API 3000 equipped with a Turbo IONSPRAY® probe. Calibration curves were obtained by performing a linear regression (weighted ⅟x^2) of the data from the calibration standards.
Plasma enzalutamide concentration vs. time curves were prepared, and values for the following parameters were determined. Cmax max is the highest enzalutamide concentration observed for each rat. Tmax is the time that Cmax is first achieved. AUC0-72 is the area under the plasma enzalutamide concentration vs. time plot out to 72 hr post-dosing.

[3] = Microcentrifuge dissolution before and after suspension for 2 hr in aqueous 0.5% methylcellulose; format: physicochemical
Procedure: Drugs and drug formulations are sometimes dosed as aqueous suspensions, particularly for pediatric patients. The ability of various enzalutamide SDDs to retain their ability to maintain drug supersaturation in vitro was assessed by using the microcentrifuge dissolution test to measure drug dissolution after suspension in 0.5% methylcellulose in water for 2 hours. Methylcellulose is a standard viscosifying suspending agent which is used to maintain drug particles in suspension in oral suspension dosage forms. The table below presents in vitro dissolution performance before and after suspension in 0.5% methylcellulose.

[4] = Glass transition temperature (Tg) by modulated DSC; format: physicochemical
Procedure: Below Tg, an amorphous material is said to be in a “glassy” state in which molecular mobility is severely restricted. […] Glass transition temperatures Tg were determined for amorphous enzalutamide, and for spray-dried dispersions (SDDs) of enzalutamide with HPMCAS-M or PVP-VA64, at <5% and 75% relative humidity (RH) Tgs were determined by modulated differential scanning calorimetry (mDSC), utilizing the following protocol. Samples (about 5 mg) were equilibrated at the desired RH overnight in an environmental chamber at ambient temperature. The samples were then loaded into pans and sealed inside the environmental chamber. The samples were analyzed on a Q1000 mDSC (TA Instruments, New Castle, Delaware). Samples were typically scanned over the temperature range of -40° C. to 180° C., at a scan rate of 2.5° C./min, and a modulation rate of ±1.5° C./min. […] The Tg was calculated based on half height.
HME dispersions were produced using dry-powder blends of enzalutamide and HPMCAS-M or PVP VA at three different drug loadings: 25%A, 40%A, and 60%A. Using a volumetric powder feeder, the blends were fed at a controlled rate to a 7.5 \-mm MP&R™ Model ME7.5 Twin-Screw Extruder (MP&R, Hackensack, NJ). […] Table 11.1 presents the extrusion temperature, the crystallinity of the dispersion (amorphous is desired), and the glass transition temperature (Tg) measured by DSC.

[5] = Crystallinity by PXRD (and DSC); format: physicochemical; details: after spray-drying
[6] = 0 hr, before suspension in 0.5% methylcellulose
[7] = after suspension for 2 hr in aqueous 0.5% methylcellulose
[8] = rat plasma, listed as Spray-dried amorphous drug

Structure (SMILES)	Maximum Flux ([1]; Table 8.1, within 240 minute duration, normalized for membrane area) [µg/cm^2×min]	Maximum Flux ([1]; Table 9.3) [µg/cm^2-min]	AUC(0-t) ([2]; CD, rat, plasma, po, 20 mg/kg, read-out: AUC 0-72) [ng·h/mL]	Cmax ([2]; rat plasma) [µg/mL]	Tmax ([2]; rat plasma) [h]	AUC90 [3, 6]	Cmax 90 [3, 6] [µg/mL]	AUC90 [3, 7]	AUC90% of 0 Hr Value [3, 7] [%]	Cmax 90 [3, 7] [µg/mL]	Tg ([4]; 75% RH) [°C]	Tg ([4]; <5% RH) [°C]	Maximum Flux ([1]; Table 8.1, within 240 minute duration, normalized for membrane area, listed as Amorphous (spray-dried) enzalutamide) [µg/cm^2×min]	crystallinity by PXRD [5]	AUC 0-72 [2, 8] [ng·h/mL]	Cmax [2, 8] [µg/mL]	Tmax [2, 8] [h]
CNC(=O)c1ccc(N2C(=S)N(c3ccc(C#N)c(C(F)(F)F)c3)C(=O)C2(C)C)cc1F [Control 1, 4-{3-[4-cyano-3-(trifluoromethyl)phenyl]-5,5-dimethyl-4-oxo-2-sulfanylideneimidazolidin-1-yl}-2-fluoro-N-methylbenzamide]	0.4	0.4	72700 ± 18400	3.53 ± 0.66	6.05 ± 0.92	–	–	–	–	–	–	–	–	–	–	–	–
CNC(=O)c1ccc(N2C(=S)N(c3ccc(C#N)c(C(F)(F)F)c3)C(=O)C2(C)C)cc1F [Amorphous enzalutamide, 4-{3-[4-cyano-3-(trifluoromethyl)phenyl]-5,5-dimethyl-4-oxo-2-sulfanylideneimidazolidin-1-yl}-2-fluoro-N-methylbenzamide]	–	–	–	–	–	8,900 min·mcg/ml	110	8,800 min·mcg/ml	99	100	64.0	88.5	1.3	completely amorphous	121000 ± 16400	7.14 ± 0.97	2.55 ± 0.57
